Assay results as given in patent publication US20260098013A1, “Stereoisomer Conjugates of Dextrorphan” (priority 2024, published 2026).

Conditions: rat, in vivo; for AUC0-6 h / Cmax / Tmax: 6 mg/kg

Structure (SMILES) | Exposure Ratio AUC (Sprague-Dawley, po) [%] | Exposure Ratio Cmax (Sprague-Dawley, po) [%] | time to reach maximum plasma concentration after administration (Sprague-Dawley, po) | AUC0-6 h (Sprague-Dawley, po) [ng·h/mL] | Cmax (Sprague-Dawley, po) [ng/mL] | Tmax (Sprague-Dawley, po) [h] | steadiness of plasma concentration | AUC compared to dextrorphan tartrate (po) | Cmax compared to dextrorphan tartrate (po) | fold increase in AUC0-6h compared to dextrorphan tartrate (Sprague-Dawley, po) | fold increase in Cmax compared to dextrorphan tartrate (Sprague-Dawley, po) [fold] | oral bioavailability compared to the other diastereomer of the same prodrug (po) | dextrorphan AUC0-6h, times higher compared to dextrorphan tartrate (po) | dextrorphan Cmax, times higher compared to dextrorphan tartrate (po) | oral dextrorphan bioavailability / exposure compared to dextrorphan tartrate (po)
CC(=O)N[C@H](CCC(=O)O)C(=O)Oc1ccc2c(c1)[C@]13CCCC[C@@H]1C(C2)N(C)CC3 [3-(N-Ac-D-Glu)-dextrorphan] | 30 | 10 | around 2 hours | 12.7 | 3.5 | 2.4 | steadier | much smaller | much smaller | – | – | – | – | – | –
CC(C)[C@H](NC(=O)[C@H](N)C(C)C)C(=O)Oc1ccc2c(c1)[C@]13CCCC[C@@H]1C(C2)N(C)CC3 [3-(D-Val-D-Val)-dextrorphan] | – | – | – | – | – | – | – | larger | larger | about 4.5 fold | ~2.7 | significantly increased | – | – | –
CC(=O)N[C@@H](Cc1ccccc1)C(=O)Oc1ccc2c(c1)[C@]13CCCC[C@@H]1[C@H](C2)N(C)CC3 [3-(N-Ac-L-Phe)-dextrorphan] | 44 | 18 | – | 27.7 | 8.0 | 2.8 | much steadier | much smaller | much smaller | – | – | – | – | – | –
CC[C@@H](C)[C@@H](NC(C)=O)C(=O)Oc1ccc2c(c1)[C@]13CCCC[C@@H]1C(C2)N(C)CC3 [3-(N-Ac-D-Ile)-dextrorphan] | 880 | 672 | – | 294.6 | 81.9 | 2.9 | – | much smaller | much smaller | – | – | – | > 8 times | over 6 times | –
CC[C@H](C)[C@H](NC(C)=O)C(=O)Oc1ccc2c(c1)[C@]13CCCC[C@@H]1C(C2)N(C)CC3 [3-(N-Ac-L-Ile)-dextrorphan] | – | – | – | 27.4 | 13.9 | 2.2 | – | – | – | – | – | – | – | – | –
C[C@@H](N)C(=O)N[C@H](C)C(=O)Oc1ccc2c(c1)[C@]13CCCC[C@@H]1C(C2)N(C)CC3 [3-(D-Ala-D-Ala)-dextrorphan] | 59 | 43 | – | 24.7 | 9.6 | 2.1 | – | lower | smaller | – | – | – | – | – | lower
CC(C)[C@@H](NC(=O)[C@@H](C)N)C(=O)Oc1ccc2c(c1)[C@]13CCCC[C@@H]1C(C2)N(C)CC3 [3-(D-Ala-D-Val)-dextrorphan] | – | – | – | – | – | – | – | larger | larger | – | – | – | – | – | superior
CC(=O)N[C@H](C)C(=O)Oc1ccc2c(c1)[C@]13CCCC[C@@H]1C(C2)N(C)CC3 [3-(N-Ac-D-Ala)-dextrorphan] | – | 32 | – | 30.8 | 16.5 | 1.6 | steadier | much smaller | much smaller | – | – | – | – | – | –
CC(C)[C@H](N)C(=O)N[C@H](C(=O)Oc1ccc2c(c1)[C@]13CCCC[C@@H]1C(C2)N(C)CC3)C(C)C [3-(L-Val-L-Val)-dextrorphan] | 85 | 128 | – | 78.5 | 98.9 | 0.5 | – | slightly lower | – | – | – | – | – | – | good oral bioavailability
CC(=O)N[C@H](Cc1ccccc1)C(=O)Oc1ccc2c(c1)[C@]13CCCC[C@@H]1[C@H](C2)N(C)CC3 [3-(N-Ac-D-Phe)-dextrorphan] | 30 | 11 | – | 19.1 | 4.7 | 5.0 | much steadier | much smaller | much smaller | – | – | – | – | – | –
CC(=O)N[C@@H](C)C(=O)Oc1ccc2c(c1)[C@]13CCCC[C@@H]1C(C2)N(C)CC3 [3-(N-Ac-L-Ala)-dextrorphan] | 40 | 35 | – | 29.6 | 18.2 | 0.7 | steadier | much smaller | much smaller | – | – | – | – | – | decreasing bioavailability
CC(=O)N[C@H](C(=O)Oc1ccc2c(c1)[C@]13CCCC[C@@H]1C(C2)N(C)CC3)C(C)C [3-(N-Ac-L-Val)-dextrorphan] | 37 | – | – | 31.2 | 12.6 | 2.8 | – | – | lower | – | – | – | – | – | –
C[C@H](N)C(=O)N[C@@H](C)C(=O)Oc1ccc2c(c1)[C@]13CCCC[C@@H]1C(C2)N(C)CC3 [3-(L-Ala-L-Ala)-dextrorphan] | 147 | 217 | – | 88.3 | 87.3 | 0.8 | – | larger | larger | – | – | – | about 1.5 times | over 2 times | –
CC(=O)N[C@@H](CCC(=O)O)C(=O)Oc1ccc2c(c1)[C@]13CCCC[C@@H]1C(C2)N(C)CC3 [3-(N-Ac-L-Glu)-dextrorphan] | 43 | 14 | around 2 hours | 18.4 | 4.8 | 1.8 | steadier | much smaller | much smaller | – | – | – | – | – | –
CC(=O)N[C@@H](C(=O)Oc1ccc2c(c1)[C@]13CCCC[C@@H]1C(C2)N(C)CC3)C(C)C [3-(N-Ac-D-Val)-dextrorphan] | 556 | 180 | – | 467.4 | 127.7 | 3.0 | – | higher | higher | – | – | – | more than 5 times | about 1.8 times | –
CN1CC[C@]23CCCC[C@H]2[C@H]1Cc1ccc(O)cc13 [Dextrorphan, (+)-17-methylmorphinan-3-ol] | – | – | approximately 30 minutes | – | – | – | – | – | – | – | – | – | – | – | –
